Results as given in patent US20030119862A1, “Pharmaceutical combination” (priority 2001, published 2003).
Read-outs that look alike come from different tables or passages of the source.

Test system: isolated human neutrophils
Assay: Inhibition of fMLP-induced elastase release from isolated human neutrophils
Assay type: cell-based
Details: read-out: Inhibition of elastase release (IC50)
Description: Test data—Inhibition of Elastase Release from Isolated Human Neutrophils
The dextran/blood was mixed gently by inversion and left to stand at room temperature for 45 minutes to allow erythrocyte sedimentation. Aliquots of 16 ml from the leukocyte-rich supernatant were overlaid on 10 ml Ficoll-Hypaque cushions in 50 ml polypropylene centrifuge tubes and the tubes centrifuged at 400 g for 35 mins at 21° C. The plasma, mononuclear cell layer and Ficoll were removed leaving the granulocyte-rich pellet. The pellets were initially re-suspended in 10 ml ice-cold distilled water for 45 seconds to lyse contaminating red blood cells, followed by the addition of 10 ml of ice-cold double concentrated phosphate buffered saline (PBS) solution to each tube to restore osmolarity. The suspensions were re-centrifuged at 200 g for 10 min at 4° C. to generate neutrophil pellets. The supernatants were removed and the pellets gently resuspended in a total volume of 10 ml ice-cold HBSS using a Pasteur pipette. A differential white cell count was performed on the resulting neutrophil suspension using a Beckman Coulter Ac. T5 haematology analyser and the cells stored on ice until assay. Immediately prior to assay, aliquots of the neutrophil suspension were removed and diluted to a count of 4×10^6 neutrophils/ml ice-cold HBSS containing 2U/ml adenosine deaminase.
Inhibition of fMLP induced elastase release was performed using a 160 μl assay volume in 96-well polystyrene microtiter plates. Elastase release was assayed by measuring the rate of cleavage of the synthetic substrate MeOSuc-Ala-Ala-Pro-Val-pNA. […] Assay plates were incubated at 37° C. for 10 minutes before addition of 8 μl of 2 μM fMLP (in HBSS) and measurement of rate of substrate cleavage was measured at λ=405 nm for 3 minutes at 37° C. Basal elastase, release was determined by the addition of 8 μl HBSS in place of fMLP. […] In the case of the combination experiments, 1000 nM of Ariflo (trade mark) (A) (also known as cilomilast) or 9-cyclopentyl-5,6-dihydro-7-ethyl-3-(2-thienyl)-9H-pyrazolo[3,4-c]-1,2,4-triazolo[4,3-α]pyridine and 9-cyclopentyl-5,6-dihydro-7-ethyl-3-(tert-butyl)-9H-pyrazolo[3,4-c]-1,2,4-triazolo[4,3-c]pyridine (C) were added to the assay and a concentration response curve was then generated for formoterol (F) or salmeterol (S).

[1] = Neutrophil, single agent, fMLP-induced elastase release, isolated human neutrophils

IC50 [1] | SMILES | also measured
> 1000 nM | COc1ccc([C@]2(C#N)CC[C@@H](C(=O)O)CC2)cc1OC1CCCC1 [A, cilomilast] | 
 | CCc1nn(C2CCCC2)c2c1CCn1c(-c3cccs3)nnc1-2 [C, 9-cyclopentyl-5,6-dihydro-7-ethyl-3-(2-thienyl)-9H-pyrazolo[3,4-c]-1,2,4-triazolo[4,3-α]pyridine and 9-cyclopentyl-5,6-dihydro-7-ethyl-3-(tert-butyl)-9H-pyrazolo[3,4-c]-1,2,4-triazolo[4,3-c]pyridine] | IC50 (single agent, fMLP-induced elastase release, isolated human neutrophils): > 1000 nM
 | COc1ccc(CC(C)NCC(O)c2ccc(O)c(NC=O)c2)cc1 (stereo not shown) [F, N-[2-hydroxy-5-(1-hydroxy-2-((2-(4-methoxyphenyl)-1-methylethyl)amino)ethyl)phenyl]formamide] | IC50 (Homo sapiens, Neutrophil): > 1000 nM
> 1000 nM | OCc1cc(C(O)CNCCCCCCOCCCCc2ccccc2)ccc1O (stereo not shown) [S, salmeterol] | 
